# Tests used:
# Assay type in all cases: functional
# Escherichia coli [1] = assay: Antimicrobial activity against Non-ESBL Escherichia coli assessed as resistant isolate by broth microdilution method
# Escherichia coli [2] = assay: Antimicrobial activity against ESBL producing Escherichia coli assessed as resistant isolate by broth microdilution method
# Klebsiella pneumoniae [3] = assay: Antimicrobial activity against Non-ESBL Klebsiella pneumoniae assessed as resistant isolate by broth microdilution method
# Klebsiella pneumoniae [4] = assay: Antimicrobial activity against ESBL producing Klebsiella pneumoniae assessed as resistant isolate by broth microdilution method
# Proteus mirabilis [5] = assay: Antimicrobial activity against ESBL producing Proteus mirabilis assessed as resistant isolate by broth microdilution method
# Enterobacter cloacae [6] = assay: Antimicrobial activity against Enterobacter cloacae with nonderepressed AmpC beta-lactamsae assessed as resistant isolate by broth microdilution method
# Enterobacter cloacae [7] = assay: Antimicrobial activity against Enterobacter cloacae with derepressed AmpC beta-lactamsae assessed as resistant isolate by broth microdilution method
# Citrobacter [8] = assay: Antimicrobial activity against Citrobacter with nonderepressed AmpC beta-lactamsae assessed as resistant isolate by broth microdilution method
# Citrobacter [9] = assay: Antimicrobial activity against Citrobacter with derepressed AmpC beta-lactamsae assessed as resistant isolate by broth microdilution method
# Pseudomonas aeruginosa [10] = assay: Antimicrobial activity against imipenem non-susceptible Pseudomonas aeruginosa assessed as resistant isolate by broth microdilution method
# Streptococcus pneumoniae [11] = assay: Antimicrobial activity against penicillin-intermediate Streptococcus pneumoniae assessed as intermediate isolate by broth microdilution method
# Enterobacteriaceae [12] = assay: Antimicrobial activity against Enterobacteriaceae assessed as intermediate isolate by broth microdilution method
# Enterobacteriaceae [13] = assay: Antimicrobial activity against Enterobacteriaceae assessed as resistant isolate by broth microdilution method
# Klebsiella pneumoniae [14] = assay: Antimicrobial activity against Klebsiella pneumoniae assessed as resistant isolate by broth microdilution method
# Enterobacter cloacae [15] = assay: Antimicrobial activity against Enterobacter cloacae assessed as intermediate isolate by broth microdilution method
# Citrobacter [16] = assay: Antimicrobial activity against Citrobacter assessed as intermediate isolate by broth microdilution method
# Serratia marcescens [17] = assay: Antimicrobial activity against Serratia marcescens assessed as resistant isolate by broth microdilution method
# Pseudomonas aeruginosa [18] = assay: Antimicrobial activity against Pseudomonas aeruginosa assessed as intermediate isolate by broth microdilution method
# Pseudomonas aeruginosa [19] = assay: Antimicrobial activity against Pseudomonas aeruginosa assessed as resistant isolate by broth microdilution method
# Streptococcus pneumoniae [20] = assay: Antimicrobial activity against […] assessed as susceptible isolate by broth microdilution method
# Enterobacteriaceae [21] = assay: Antimicrobial activity against ceftazidime non-susceptible Enterobacteriaceae by broth microdilution method in presence of Tazobactam
# Enterobacteriaceae [22] = assay: Antimicrobial activity against ceftazidime-susceptible Enterobacteriaceae assessed as resistant isolate by broth microdilution method in presence of Tazobactam
# Enterobacteriaceae [23] = assay: Antimicrobial activity against ceftazidime non-susceptible Enterobacteriaceae assessed as susceptible isolate by broth microdilution method in presence of Tazobactam
# Escherichia coli [24] = assay: Antimicrobial activity against ESBL producing Escherichia coli assessed as intermediate isolate by broth microdilution method in presence of Tazobactam
# Escherichia coli [25] = assay: Antimicrobial activity against ESBL producing Escherichia coli assessed as resistant isolate by broth microdilution method in presence of Tazobactam
# Klebsiella pneumoniae [26] = assay: Antimicrobial activity against Non-ESBL Klebsiella pneumoniae by broth microdilution method in presence of Tazobactam
# Klebsiella pneumoniae [27] = assay: Antimicrobial activity against Non-ESBL Klebsiella pneumoniae assessed as intermediate isolate by broth microdilution method in presence of Tazobactam
# Klebsiella pneumoniae [28] = assay: Antimicrobial activity against ESBL producing Klebsiella pneumoniae assessed as susceptible isolate by broth microdilution method in presence of Tazobactam
# Klebsiella pneumoniae [29] = assay: Antimicrobial activity against ESBL producing Klebsiella pneumoniae assessed as intermediate isolate by broth microdilution method in presence of Tazobactam
# Klebsiella pneumoniae [30] = assay: Antimicrobial activity against ESBL producing Klebsiella pneumoniae assessed as resistant isolate by broth microdilution method in presence of Tazobactam
# Pseudomonas aeruginosa [31] = assay: Antimicrobial activity against Pseudomonas aeruginosa isolated from ICU patient assessed as resistant isolate by broth microdilution method
# Pseudomonas aeruginosa [32] = assay: Antimicrobial activity against Pseudomonas aeruginosa isolated from non-ICU patient assessed as intermediate isolate by broth microdilution method in presence of Tazobactam
# Pseudomonas aeruginosa [33] = assay: Antimicrobial activity against Pseudomonas aeruginosa isolated from ICU patient assessed as intermediate isolate by broth microdilution method in presence of Tazobactam
# Pseudomonas aeruginosa [34] = assay: Antimicrobial activity against Pseudomonas aeruginosa isolated from ICU patient assessed as resistant isolate by broth microdilution method in presence of Tazobactam
# Proteus mirabilis [35] = assay: Antimicrobial activity against ESBL producing Proteus mirabilis by broth microdilution method in presence of Tazobactam
# Proteus mirabilis [36] = assay: Antimicrobial activity against Non-ESBL Proteus mirabilis assessed as intermediate isolate by broth microdilution method in presence of Tazobactam
# Proteus mirabilis [37] = assay: Antimicrobial activity against ESBL producing Proteus mirabilis assessed as intermediate isolate by broth microdilution method in presence of Tazobactam
# Enterobacter cloacae [38] = assay: Antimicrobial activity against Enterobacter cloacae with nonderepressed AmpC beta-lactamsae assessed as susceptible isolate by broth microdilution method in presence of Tazobactam
# Enterobacter cloacae [39] = assay: Antimicrobial activity against Enterobacter cloacae with nonderepressed AmpC beta-lactamsae assessed as intermediate isolate by broth microdilution method in presence of Tazobactam
# Citrobacter [40] = assay: Antimicrobial activity against Citrobacter with derepressed AmpC beta-lactamsae by broth microdilution method in presence of Tazobactam
# Citrobacter [41] = assay: Antimicrobial activity against Citrobacter with derepressed AmpC beta-lactamsae assessed as susceptible isolate by broth microdilution method in presence of Tazobactam
# Serratia marcescens [42] = assay: Antimicrobial activity against Ceftazidime susceptible Serratia marcescens assessed as intermediate isolate by broth microdilution method in presence of tazobactam
# Serratia marcescens [43] = assay: Antimicrobial activity against Ceftazidime susceptible Serratia marcescens assessed as resistant isolate by broth microdilution method in presence of tazobactam
# Serratia marcescens [44] = assay: Antimicrobial activity against ceftazidime non-susceptible Serratia marcescens assessed as susceptible isolate by broth microdilution method in presence of Tazobactam
# Serratia marcescens [45] = assay: Antimicrobial activity against Ceftazidime non-susceptible Serratia marcescens assessed as intermediate isolate by broth microdilution method in presence of tazobactam
# Pseudomonas aeruginosa [46] = assay: Antimicrobial activity against imipenem non-susceptible Pseudomonas aeruginosa assessed as susceptible isolate by broth microdilution method in presence of Tazobactam
# Acinetobacter [47] = assay: Antimicrobial activity against imipenem susceptible Acinetobacter assessed as susceptible isolate by broth microdilution method in presence of Tazobactam
# Acinetobacter [48] = assay: Antimicrobial activity against imipenem non-susceptible Acinetobacter assessed as susceptible isolate by broth microdilution method in presence of Tazobactam
# Proteus mirabilis [49] = assay: Antimicrobial activity against Proteus mirabilis assessed as resistant isolate by broth microdilution method
# Staphylococcus aureus = assay: Antimicrobial activity against methicillin-resistant Staphylococcus aureus by broth microdilution method
# Staphylococcus = assay: Antimicrobial activity against methicillin-resistant coagulase-negative Staphylococcus by broth microdilution method
compound,measurement,setting,value
CC(C)(O/N=C(\C(=O)N[C@@H]1C(=O)N2C(C(=O)[O-])=C(C[n+]3ccccc3)CS[C@H]12)c1csc(N)n1)C(=O)O [CEFTAZIDIME],Activity,Escherichia coli [1],0.9%
same,Activity,Escherichia coli [2],56.7%
same,Activity,Klebsiella pneumoniae [3],0.6%
same,Activity,Klebsiella pneumoniae [4],95.5%
same,Activity,Proteus mirabilis [5],0%
same,Activity,Enterobacter cloacae [6],5.7%
same,Activity,Enterobacter cloacae [7],97.1%
same,Activity,Citrobacter [8],1.3%
same,Activity,Citrobacter [9],100%
same,Activity,Pseudomonas aeruginosa [10],18.4%
C[C@@H](O)[C@H]1C(=O)N2C(C(=O)O)=C(S[C@@H]3CN[C@H](C(=O)N(C)C)C3)[C@H](C)[C@H]12 [MEROPENEM],Activity,Streptococcus pneumoniae [11],83.9%
same,Activity,Enterobacteriaceae [12],0%
same,Activity,Enterobacteriaceae [13],0.1%
same,Activity,Klebsiella pneumoniae [14],0.3%
same,Activity,Klebsiella pneumoniae [3],0.2%
same,Activity,Klebsiella pneumoniae [4],4.5%
same,Activity,Enterobacter cloacae [15],0.4%
same,Activity,Citrobacter [16],0%
same,Activity,Serratia marcescens [17],0.8%
same,Activity,Pseudomonas aeruginosa [18],4.6%
same,Activity,Pseudomonas aeruginosa [19],10.2%
same,Activity,Pseudomonas aeruginosa [10],40.6%
same,Activity,Streptococcus pneumoniae [20],100%
CCN1CCN(C(=O)N[C@@H](C(=O)N[C@@H]2C(=O)N3[C@@H]2SC(C)(C)[C@@H]3C(=O)O)c2ccccc2)C(=O)C1=O [PIPERACILLIN],MIC50,Enterobacteriaceae [21],128 µg/mL
same,MIC90,Enterobacteriaceae [21],> 128 µg/mL
same,Activity,Enterobacteriaceae [22],1.9%
same,Activity,Enterobacteriaceae [23],15.6%
same,Activity,Escherichia coli [24],16.7%
same,Activity,Escherichia coli [25],30%
same,MIC50,Klebsiella pneumoniae [26],4 µg/mL
same,MIC90,Klebsiella pneumoniae [26],16 µg/mL
same,Activity,Klebsiella pneumoniae [27],2.4%
same,Activity,Klebsiella pneumoniae [28],11.4%
same,Activity,Klebsiella pneumoniae [29],11.4%
same,Activity,Klebsiella pneumoniae [30],77.3%
same,MIC50,Pseudomonas aeruginosa [31],16 µg/mL
same,Activity,Pseudomonas aeruginosa [32],0%
same,Activity,Pseudomonas aeruginosa [33],0%
same,Activity,Pseudomonas aeruginosa [34],21.6%
same,MIC,Proteus mirabilis [35],0.5 µg/mL
same,Activity,Proteus mirabilis [36],0.3%
same,Activity,Proteus mirabilis [37],0%
same,Activity,Enterobacter cloacae [38],93.3%
same,Activity,Enterobacter cloacae [39],3.2%
same,MIC50,Citrobacter [40],128 µg/mL
same,MIC90,Citrobacter [40],> 128 µg/mL
same,Activity,Citrobacter [41],3.6%
same,Activity,Serratia marcescens [42],4.4%
same,Activity,Serratia marcescens [43],1.9%
same,Activity,Serratia marcescens [44],20%
same,Activity,Serratia marcescens [45],30%
same,Activity,Pseudomonas aeruginosa [46],72.9%
same,Activity,Acinetobacter [47],52.1%
same,Activity,Acinetobacter [48],0%
C[C@@H](O)[C@H]1C(=O)N2C(C(=O)O)=C(SCCNC=N)C[C@H]12 [IMIPENEM ANHYDROUS],Activity,Streptococcus pneumoniae [11],84.4%
same,Activity,Enterobacteriaceae [12],0.4%
same,Activity,Enterobacteriaceae [13],0.1%
same,Activity,Proteus mirabilis [49],0.2%
same,Activity,Enterobacter cloacae [15],0.4%
same,Activity,Citrobacter [16],0%
same,Activity,Citrobacter [8],0.2%
same,Activity,Serratia marcescens [17],0.8%
same,Activity,Pseudomonas aeruginosa [18],7.7%
same,Activity,Pseudomonas aeruginosa [19],16%
same,MIC50,Staphylococcus aureus,0.25 µg/mL
same,MIC90,Staphylococcus aureus,8 µg/mL
same,MIC50,Staphylococcus,0.25 µg/mL
same,MIC90,Staphylococcus,16 µg/mL
same,Activity,Streptococcus pneumoniae [20],99.9%
C[C@@H](O)[C@H]1C(=O)N2C(C(=O)O)=C(S[C@@H]3CN[C@H](CNS(N)(=O)=O)C3)[C@H](C)[C@H]12 [DORIPENEM],MIC50,Staphylococcus aureus,0.5 µg/mL
same,MIC90,Staphylococcus aureus,8 µg/mL
same,MIC50,Staphylococcus,1 µg/mL
same,MIC90,Staphylococcus,8 µg/mL
